Data: patent US11324748B2, “Vasodilators for treatment of heart failure” (NORTHEAST OHIO MEDICAL UNIVERSITY, priority 2017, dated 2022)
Structures can show the parent of a compound that is named as a salt.

Assays:
[1] = system: mice with heart failure (HFrEF); test: Treadmill exercise time and whole body oxygen consumption in mice with heart failure, FIG. 9
[2] = system: heart failure induced by TAC (transaortic constriction); details: TAC mice, treatment started at week 5; FIG. 7
[3] = system: myocardial blood flow in the failing heart; test: Myocardial blood flow by myocardial contrast echocardiography during norepinephrine cardiac stress test in HF mice; assay type: in vivo; details: FIG. 2 right
Protocol: After the control measurements to establish baseline % EF, mice underwent surgery to constrict the aortic artery. This procedure, termed transaortic constriction (TAC), causes the heart to pump against a high blood pressure, which causes it to fail. […] At the end of the 13th week, mice were either treated with chromonar (as continuous infusion) or a vehicle (that the chromonar was dissolved in).
Myocardial contrast echocardiography (MCE) was used to measure myocardial blood flow in both groups of mice. […] Mice were determined to be in HF when EF<40%). After the development of failure, myocardial blood flow was measured during a cardiac stress test produced by infusion of norepinephrine to increase myocardial metabolic demands. A plot of cardiac work vs MBF was made for the sham mice and for those in HF. To estimate metabolic demands, the index wall stress rate product (WSRP) was developed.

[4] = system: heart failure (HF) induced by transaortic constriction (TAC); test: Transaortic constriction (TAC) heart failure in mice, echocardiography; chromonar or vehicle from end of week 13; assay type: in vivo
Description: Ejection fraction is the percentage of blood in the left ventricular chamber that the heart ejects per beat. Under normal conditions, the heart will eject 60-70% of left ventricular volume with each contraction, but the failing heart ejects considerably less. After the control measurements to establish baseline % EF, mice underwent surgery to constrict the aortic artery. This procedure, termed transaortic constriction (TAC), causes the heart to pump against a high blood pressure, which causes it to fail. […] At the end of the 13th week, mice were either treated with chromonar (as continuous infusion) or a vehicle (that the chromonar was dissolved in).
Another way of assessing the effectiveness of a therapy in heart failure is to determine how much volume is in the left ventricle before it begins to contract (termed diastolic volume). When contractile function of the heart declines, this volume progressively increases. This volume is important for a number of reasons. First, it is directly related to energy consumption of the heart (as the volume increases energy consumption is increased). Second, if this volume becomes too large, the heart muscle can be overstretched and will contract even more poorly—this is referred to as decompensated heart failure. Third, as the diastolic volume increases pressures and volumes “upstream” in the atrium and pulmonary vessels will also increase. […]

Takotsubo Syndrome = Takotsubo Syndrome produced by TAC, ventricular function, FIG. 11; assay type: in vivo, mice; details: 4 weeks, 2 weeks of treatment

| SMILES | total exercise time on a treadmill [1] | cardiac function (EF %) [2] | relationship between MBF and cardiac work (WSRP) ([3]; failing heart after chromonar) | myocardial blood flow (MBF) ([3]; failing heart, during changes in cardiac work (WSRP)) | cardiac function (ejection fraction, % EF) ([4]; treated at end of 13th week, continuous infusion, FIG. 2 left) | Left Ventricular Diastolic Volume ([4]; treatment at end of week 13, FIG. 3) | ventricular function (EF %) (Takotsubo Syndrome) | whole body oxygen consumption ([1]; within 5 minutes of exercise) |
| --- | --- | --- | --- | --- | --- | --- | --- | --- |
| CCOC(=O)COc1ccc2c(C)c(CCN(CC)CC)c(=O)oc2c1 [chromonar, 14.3-(beta-Diethylaminoethyl)-4-methyl-7-(carbethoxymethoxy)-coumarin hydrochloride] | ~70 min | improved dramatically | reconnects the relationship between work and flow in the heart | flow is higher | restored cardiac function—nearly back to the control levels | diastolic volumes decreased | improved ventricular function greatly | – |
| CC(C)NCC(O)COc1cccc2ccccc12 (stereo not shown) [propranolol] | about 45 minutes | continued to decrease | – | – | – | – | – | lower oxygen consumption than the chromonar treated group |
